According to patent US10196345B2, “MAO-B selective inhibitor compounds, pharmaceutical compositions thereof and uses thereof” (The University of British Columbia, priority 2013, dated 2019):
Where a name gives a salt, the structure may show the parent alone. Read-outs that look alike come from different tables or passages of the source.

How the values were obtained:
recombinant human MAO-B = biological target: T1, recombinant human MAO-B (Homo sapiens, UniProt P27338); experiment: Cell-free Fluorescent Monoamine Oxidase A&B Detection Assay, MAO-B; format: biochemical
T1 sequence (P27338 1-520): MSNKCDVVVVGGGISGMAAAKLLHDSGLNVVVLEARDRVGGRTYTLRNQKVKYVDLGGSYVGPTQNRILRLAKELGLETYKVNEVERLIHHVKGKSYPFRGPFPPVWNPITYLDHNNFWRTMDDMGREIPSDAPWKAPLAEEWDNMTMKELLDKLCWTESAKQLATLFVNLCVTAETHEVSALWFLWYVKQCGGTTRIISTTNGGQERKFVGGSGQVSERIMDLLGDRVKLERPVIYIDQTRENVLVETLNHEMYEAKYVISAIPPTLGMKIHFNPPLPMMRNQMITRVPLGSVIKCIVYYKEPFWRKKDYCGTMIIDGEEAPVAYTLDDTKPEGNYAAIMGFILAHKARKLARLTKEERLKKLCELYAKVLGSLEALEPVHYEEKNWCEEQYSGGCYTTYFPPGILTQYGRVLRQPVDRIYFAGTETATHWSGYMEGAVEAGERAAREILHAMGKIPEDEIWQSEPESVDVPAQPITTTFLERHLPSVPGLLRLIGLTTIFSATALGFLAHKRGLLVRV
Protocol: (§1) The assay was repeated to confirm data.
(§2) MAO B specific inhibitory activity and selectivity over MAO A is assayed using a commercial kit [Fluoro MAO A and B detection kit (Cell Technology Inc™)]. This kit uses a non-fluorescent detection reagent to measure H2O2 released from the conversion of an MAO A and MAO B substrate specific to its aldehyde. Furthermore, H2O2 oxidizes the detection reagent in a 1:1 stoichiometry to produce a fluorescent product (resorufin). […] This information is then provided to the medicinal chemists to help direct synthesis of subsequent iterations.

recombinant human MAO-A = biological target: T2, recombinant human MAO-A (Homo sapiens, UniProt P21397); experiment: Cell-free Fluorescent Monoamine Oxidase A&B Detection Assay, MAO-A; format: biochemical
T2 sequence (P21397 1-527): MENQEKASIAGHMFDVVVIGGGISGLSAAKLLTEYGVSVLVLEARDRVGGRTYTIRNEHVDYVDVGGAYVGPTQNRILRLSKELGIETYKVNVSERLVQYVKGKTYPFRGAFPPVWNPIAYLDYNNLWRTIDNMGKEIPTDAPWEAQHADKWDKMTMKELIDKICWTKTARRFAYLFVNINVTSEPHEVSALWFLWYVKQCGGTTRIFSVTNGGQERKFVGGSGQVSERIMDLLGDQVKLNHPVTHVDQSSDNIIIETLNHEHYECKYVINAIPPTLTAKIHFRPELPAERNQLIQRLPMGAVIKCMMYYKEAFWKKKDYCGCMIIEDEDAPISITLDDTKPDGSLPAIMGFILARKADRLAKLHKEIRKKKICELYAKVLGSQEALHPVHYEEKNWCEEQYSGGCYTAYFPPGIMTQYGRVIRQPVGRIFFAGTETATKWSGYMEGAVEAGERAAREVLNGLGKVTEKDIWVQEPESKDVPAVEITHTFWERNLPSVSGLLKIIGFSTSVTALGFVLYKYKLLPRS
Protocol: as §1, §2

[1] = cell-free, recombinant human MAO-A
[2] = cell-free, recombinant human MAO-A, read-out: IC50 MAO-A
[3] = cell-free, recombinant human MAO-A, read-out: IC90 MAO-A

Row | Compound | IC50 MAO-A (μM) (recombinant human MAO-A; [1]) | IC90 (recombinant human MAO-B) | IC50 (recombinant human MAO-B; read-out: IC50 MAO-B) | further results
1 | O=C(O)c1coc(Cc2ccc(OCc3ccccc3)cc2)n1 [PS-AD0031] | Does not | – | – | IC90 MAO-B (μM) (recombinant human MAO-B): Does not
2 | C[C@H](Cc1ccc(OCc2cc(Cl)ccc2Cl)cc1)N(C)CC(=O)O.Cl [PS-AD0064, (R)—N-(1-(4-((2,5-dichlorobenzyl)oxy)phenyl)propan-2-yl)-N-methylglycine hydrochloride] | Does not | 25.8 µM | 1.27 µM | –
3 | C[C@H](Cc1ccc(OCc2ccc(C(=O)O)cc2)cc1)N(C)CC(=O)O.Cl [PS-AD0065 B, (R)-4-((4-(2-((carboxymethyl)(methyl)amino)propyl)phenoxy)methyl)benzoic acid hydrochloride] | Does not | 149 µM | 10 µM | –
4 | C[C@H](Cc1ccc(OCc2ccc(C#N)cc2)cc1)N(C)CC(=O)O.Cl [PS-AD0065, (R)—N-(1-(4-((4-cyanobenzyl)oxy)phenyl)propan-2-yl)-N-methylglycine hydrochloride] | Does not | 81.1 µM | 3.28 µM | –
5 | C[C@H](Cc1ccc(OCc2ccncc2)cc1)N(C)CC(=O)O.Cl.Cl [PS-AD0068, (R)—N-methyl-N-(1-(4-(pyridin-4-ylmethoxy)phenyl)propan-2-yl)glycine hydrochloride] | Does not | 506 µM | 20 µM | –
6 | CN(CC(=O)O)[C@H](CCl)Cc1ccc(OCc2ccccc2)cc1 [PS-AD0095, (S)—N-(1-(4-(benzyloxy)phenyl)-3-chloropropan-2-yl)-N-methylglycine] | Does not | 13.4 µM | 1.4 µM | –
7 | CN(CC(=O)O)[C@H](CCO)Cc1ccc(OCc2ccccc2)cc1.Cl [PS-AD0179, (S)—N-(1-(4-(benzyloxy)phenyl)-4-hydroxybutan-2-yl)-N-methylglycine] | Does not | 167 µM | 7.82 µM | –
8 | CN(CC(=O)O)[C@H](CC#N)Cc1ccc(OCc2ccccc2)cc1.Cl [PS-AD0186, (S)—N-(1-(4-(benzyloxy)phenyl)-3-cyanopropan-2-yl)-N-methylglycine] | Does not | 4.44 µM | 0.56 µM | –
9 | C[C@H](Cc1ccc(OCc2cnc3ncccn23)cc1)N(C)CC(=O)O.Cl [PS-AD0223] | Does not | – | – | IC90 MAO-B (μM) (recombinant human MAO-B): Does not
10 | C[C@H](Cc1ccc(Oc2ccccc2)cc1)N(C)CC(=O)O [PS-RG0008, N—((R)-(1-(4-(phenoxy)phenyl)propan-2-yl)(methyl))glycine hydrochloride] | Does not | 331 µM | 69.2 µM | –
11 | CN(CC(=O)O)Cc1ccccc1.Cl [PS-RG0019] | Does not | – | – | IC90 MAO-B (μM) (recombinant human MAO-B): Does not
12 | CN(CCc1ccccc1)CC(=O)O.Cl [PS-RG0020] | Does not | – | – | IC90 MAO-B (μM) (recombinant human MAO-B): Does not
13 | C[C@H](Cc1ccc(OCc2ccccc2)cc1)N(C)CC(=O)O [PS-RG0031A, N—((R)-(1-(4-(benzyloxy)phenyl)propan-2-yl)(methyl))glycine hydrochloride] | Does not | 30.5 µM | 0.908 µM | –
14 | CN(CCc1ccc(Oc2ccccc2)cc1)CC(=O)O.Cl [PS-RG0058] | Does not | – | – | IC90 MAO-B (μM) (recombinant human MAO-B): Does not
15 | C#CCN(C)[C@H](C)Cc1ccc(OCc2ccccc2)cc1 [PS-RG0061] | – | 0.023 µM | 0.00458 µM | IC50 (recombinant human MAO-A; IC50 MAO-A (μM), cell-free, recombinant human MAO-A): 0.163 µM; IC90 (recombinant human MAO-A; read-out: IC90 MAO-A (μM)): 1.05 µM
16 | CN(CCc1ccc(OCc2ccccc2)cc1)CC(=O)O.Cl [PS-RG0064, N,N-(4-(Benzyloxy)phenethyl)(methyl)glycine hydrochloride] | Does not | 252 µM | 7.33 µM | –
17 | C#CCN(C)CCc1ccccc1 [PS-RG0070] | – | 0.0306 µM | – | IC50 (recombinant human MAO-B; IC50 MAO-B (μM)): 0.0107 µM; IC50 (recombinant human MAO-A; [2]): 12.5 µM; IC90 (recombinant human MAO-A; [3]): 126 µM

Row | Compound | IC50 MAO-A (μM) (recombinant human MAO-A; [1]) | IC90 (recombinant human MAO-B) | IC50 (recombinant human MAO-B; read-out: IC50 MAO-B) | further results
18 | CN(CC(=O)O)C(=O)C=C1COc2cc(Oc3ccccc3)ccc21 [PS-RG0080] | Does not | – | – | IC90 MAO-B (μM) (recombinant human MAO-B): Does not
19 | CN(CC(=O)O)Cc1cc(=O)oc2cc(Oc3ccccc3)ccc12.Cl [PS-RG0097] | Does not | – | – | IC90 MAO-B (μM) (recombinant human MAO-B): Does not
20 | CN(CC(=O)O)Cc1cc(=O)oc2cc(OCc3ccccc3)ccc12.Cl [PS-RG0098, N-((7-(benzyloxy)-2-oxo-2H-chromen-4-yl)methyl)-N-methylglycine hydrochloride] | Does not | 4.1 µM | 0.799 µM | –
21 | C[C@H](Cc1ccc(OCc2ccccc2Cl)cc1)N(C)CC(=O)O [PS-RG0121, N—((R)-(1-(4-(2-chlorobenzyloxy)phenyl)propan-2-yl)(methyl))glycine hydrochloride] | Does not | 8.13 µM | 0.668 µM | –
22 | COC(=O)[C@H](Cc1ccc(OCc2cccc(Cl)c2)cc1)N(C)CC(=O)O [PS-RG0122, N-Carboxymethyl-N-methyl-O-3-chlorobenzyloxytyrosine methyl ester hydrochloride] | Does not | 19.1 µM | 1.43 µM | –
23 | COC(=O)[C@H](Cc1ccc(OCc2ccccc2)cc1)N(C)CC(=O)O.Cl [PS-RG0123, N-Carboxymethyl)-N-(methyl-O-benzyloxytyrosine methyl ester hydrochloride] | Does not | 354 µM | 9.95 µM | –
24 | C[C@H](Cc1ccc(OCc2ccccc2C#N)cc1)N(C)CC(=O)O.Cl [PS-RG0171, (R)—N-(1-(4-((2-cyanobenzyl)oxy)phenyl)propan-2-yl)-N-methylglycine hydrochloride] | Does not | 1080 µM | 13 µM | –
25 | C[C@H](Cc1ccc(OCc2cccc(C#N)c2)cc1)N(C)CC(=O)O.Cl [PS-RG0172, (R)—N-(1-(4-((3-cyanobenzyl)oxy)phenyl)propan-2-yl)-N-methylglycine hydrochloride] | Does not | 1840 µM | 19.7 µM | –
26 | C[C@H](Cc1ccc(OCc2cccc(F)c2)cc1)N(C)CC(=O)O.Cl [PS-RG0173, (R)—N-(1-(4-((3-fluorobenzyl)oxy)phenyl)propan-2-yl)-N-methylglycine hydrochloride] | Does not | 13.5 µM | 0.785 µM | –
27 | C[C@H](Cc1ccc(OCc2cc(F)cc(F)c2)cc1)N(C)CC(=O)O.Cl [PS-RG0174, (R)—N-(1-(4-((3,5-difluorobenzyl)oxy)phenyl)propan-2-yl)-N-methylglycine hydrochloride] | Does not | 6.7 µM | 0.794 µM | –
28 | CN(CC(=O)O)[C@H](CO)Cc1ccc(OCc2ccccc2)cc1 [PS-RG0188, (S)—N-(1-(4-(benzyloxy)phenyl)-3-hydroxypropan-2-yl)-N-methylglycine] | Does not | 19.7 µM | 0.738 µM | –
29 | O=C([O-])C1=N[C@@H](Cc2ccccc2)CO1.[Na+] [PS-RG0200] | Does not | – | – | IC90 MAO-B (μM) (recombinant human MAO-B): Does not
30 | CN(CC(=O)O)c1ccc(CCOCc2ccccc2)cc1.Cl [PS-RG0210] | Does not | 708 µM | 23.6 µM | –
31 | C[C@H](Cc1ccc(OCc2ccccn2)cc1)N(C)CC(=O)O.Cl.Cl [PS-RG0217, (R)—N-methyl-N-(1-(4-(pyridin-2-ylmethoxy)phenyl)propan-2-yl)glycine hydrochloride] | Does not | 577 µM | 26.6 µM | –
32 | C[C@H](Cc1ccc(OCc2cccnc2)cc1)N(C)CC(=O)O.Cl.Cl [PS-RG0218] | Does not | – | – | IC90 MAO-B (μM) (recombinant human MAO-B): Does not
33 | C[C@H](Cc1ccc(OCC(=O)O)cc1)N(C)CC(=O)O.Cl [PS-RG0219] | Does not | – | – | IC90 MAO-B (μM) (recombinant human MAO-B): Does not
34 | C[C@H](Cc1ccc(OCc2ccc(Cl)cc2)cc1)N(C)CC(=O)O [PS-RG0226, (R)—N-(1-(4-((4-chlorobenzyl)oxy)phenyl)propan-2-yl)-N-methylglycine hydrochloride] | – | 3.42 µM | 0.505 µM | IC50 (recombinant human MAO-A; [2]): 198 µM; IC90 (recombinant human MAO-A; [3]): 1260 µM
